Source: PMC9490060, “Synthesis and evaluation of anticancer activity of quillaic acid derivatives: A cell cycle arrest and apoptosis inducer through NF-κB and MAPK pathways” (Frontiers in Chemistry, 2022)

Columns and labels:
[1] = tested on: HCT116 (human colorectal cancer cell line); assay: MTT anti-proliferative assay, HCT116; type: cell-based; details: means ± SD, n = 3
In short: (§1)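 Cells seeded at 1 × 10^4–1.2 × 10^4 per well were allowed to adhere 24 h, then exposed 48 h at 37 °C, 5% CO2 to compound at 1.25, 2.5, 5 and 10 μM (DMSO ≤0.1%). MCF-7 and HepG2 were grown in DMEM, HCT116 and BEL7402 in RPMI 1640, each with 10% FBS. MTT (final 2 mg/ml) was added for 4 h; formazan was dissolved in DMSO and read at 492 nm.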

[2] = tested on: BEL7402 (human hepatocellular carcinoma cell line); assay: MTT anti-proliferative assay, BEL7402; type: cell-based; details: means ± SD, n = 3
In short: as §1

Bcl-2 = assay: Western blot, Bcl-2 expression; type: cell-based, human; details: HCT116, 10 μM, 24 h
Method: The Bcl-2 protein family (including the anti-apoptotic protein Bcl-2 and the pro-apoptotic protein Bax) is a group of key apoptotic proteins that play an important role in the regulation of apoptosis ([Han et al., 2013]; [Zhang and Saghatelian, 2013]; [Zheng et al., 2021]). HCT116 cells were treated with different concentrations (2.5, 5, and 10 μM) of E to detect the expression of Bax and Bcl-2 proteins.
(§2) FIGURE 7 Effect of compound E on the levels of Bax, and Bcl-2 in HCT116 cells. Cells were pretreated with the various concentrations of compound E (2.5, 5 and 10 μM) for 24 h. The expression of Bax, and Bcl-2 were analyzed by Western blot. ***p < 0.001, **p < 0.01, *p < 0.05 vs. control group. The error bars represent the mean ± SD for three independent experiments.
(§3) HCT116 cells were cultured with different concentrations of compound E for 24 h. Then, the floating cells were collected and washed twice with ice-cold PBS. Add cold RIPA buffer. After the cells were lysed on ice for 20 min, the lysate was centrifuged at 12,000 rpm for 15 min at 4°C. The BCA method determines the protein concentration. Separated by SDS/PAGE electrophoresis and transferred to a nitrocellulose filter membrane for Western blot analysis. The membrane was blocked with PBS containing 5% skim milk at room temperature for 2 h. […] The protein is detected by electrochemiluminescence (Bio-Rad, CA, United State).

NF-κB p65 = assay: Western blot, NF-κB signaling pathway: NF-κB p65; type: cell-based, human; details: HCT116, 2.5, 5 and 10 μM, 24 h
Excerpt: The NF-κB pathway plays an important role in a variety of cellular functions, including cell growth, apoptosis, and tumorigenesis ([Hwang et al., 2012]). Interfering with NF-κB signaling can inhibit tumor cell proliferation and metastasis ([Yenmis et al., 2021]). Therefore, NF-κB inhibitors are considered as potential anticancer drugs ([Wang et al., 2017]).
as §2, with “8” for “7”, “NF-κB signaling pathway” for “the levels of Bax, and Bcl-2”, “phospho-NF-κB p65, NF-κB p65, phospho-IκB, IκB” for “Bax, and Bcl-2”
as §3

[3] = Stability under pharmacological experimental conditions (RPMI 1640 medium, liquid phase detection); type: physicochemical
Method: Experimental method: Samples A-E were prepared and detected by liquid phase. Details are as follows.
A: The purity of compound E was detected by liquid phase, and the peak time of compound E was judged.
B: Liquid detection RPMI 1640 medium
C: Compound E was dissolved in the RPMI 1640 medium and detected by liquid phase.
D: Compound E was dissolved in the RPMI 1640 medium and placed in the incubator for 24 hours before detection by liquid phase.
E: Compound E was dissolved in the RPMI 1640 medium and placed in the incubator for 48 hours before detection by liquid phase.

IC50 values HCT116 ([1]; 48 h incubation): strong activity | IC50 ([1]; Homo sapiens, HCT-116, 48 h incubation): 2.46 ± 0.44 µM | IC50 values BEL7402 ([2]; 48 h incubation): strong activity | IC50 ([2]; Homo sapiens, Bel-7402, 48 h incubation): 6.89 ± 1.69 µM | content of compound E (HPLC peak) ([3]; after 24 hours in incubator): 20.495% | content of compound E (HPLC peak) ([3]; after 48 hours in incubator): 19.557% | content of compound E (HPLC peak) ([3]; check directly/0 hours): 20.461% | stability under pharmacological experimental conditions ([3]; incubator, up to 48 hours): high stability
Structure (SMILES): CC1(C)CC[C@]2(C(=O)OCCn3nnnc3-c3ccccc3)[C@H](O)C[C@]3(C)C(=CC[C@@H]4[C@@]5(C)CC[C@H](O)[C@@](C)(C=O)[C@@H]5CC[C@]43C)[C@@H]2C1 [Compound E, 2-(5-phenyl-1H-tetrazol-1-yl)ethyl (4aR,5R,6aS,6bR,8aR,9S,10S,12aR,12bR,14bS)-9-formyl-5,10-dihydroxy-2,2,6a,6b,9,12a-hexamethyl-1,3,4,5,6,6a,6b,7,8,8a,9,10,11,12,12a,12b,13,14b-octadecahydropicene-4a (2H)-carboxylate]
level of Bcl-2 (Bcl-2): decreased | effect on NF-κB p65 (NF-κB p65): no inhibitory effect
